Source: patent US7250267B2, “Cross-reactive sensors” (priority 2001, dated 2007)

Columns and labels:
Format in all cases: biochemical
[1] = system: Esterase from Bacillus sp. (denoted bacteria-1); experiment: Esterase hydrolysis microtiter plate assay with fluorescein pH indicator, bacteria esterase 1; settings: for Km / Vmax: Lineweaver-Burk plot, various ester concentrations, bacteria esterase 1
Method: (§1) A fluorescent pH indicator, fluorescein, was added to the reaction mixture to measure the change in acidity resulting from the hydrolysis reaction in a 96-well microtiter plate format. The fluorescence response was monitored over time to give a temporal pH-induced fluorescence pattern. […] Esterases have been used to test ester chirality (Janes et al., Chem. Eur. J, 1998, 4, 2324) and as synthetic tools for efficiently hydrolyzing a variety of esters (Ohno et al., Org. React, 1989, 37, 1). General Procedure for Enzyme-Based Sensor Array:
(§2) First, solutions of desired substrates (certain exemplary substrates are depicted in FIGS. 4 and 5) were made from 100 mM of substrate in CH3CN (or buffer, depending on the solubility of the ester). The analyte concentration was chosen to be at most one-fifth of the Michaelis constant (kM) for the esterases. All solvents and substrates were purchased from Aldrich, Sigma, and Fluka Chemical Companies and used as received.
(§3) In the present example, the microtiter plate assay contained the nine esterases in different columns and the ester analytes in the different rows. Each esterase catalyzed hydrolysis reaction was addressed individually to monitor the kinetics by scanning each well independently. After preparation of the desired solutions, to the microtiter plate was first pipetted (using a pipetman) 100 μL of the substrate solution into each well. […] The plate was allowed to shake for 10 seconds before the first reading. The reader reads 15 second intervals while shaking before each read. The plate was monitored for 90 seconds by a Molecular Devices, Spectra Max Gemini, fluorescence microtiter plate reader. The reader scans each row and column of the microtiter plate reading each well individually. Therefore, each enzyme was monitored individually and the enzyme's kinetics were measured at the same point in time. […] The MATLAB program analyzes the individual interactions and separates them into clusters, which can indicate the ability of the sensor to distinguish the analytes.
For mixture analysis, concentration runs of four esters, PA, ethyl valerate (EV), methyl nicotinate (MNI) and methyl 6-methyl nicotinate (MMNI) were performed with the nine esterases. The rates of the esterase reaction were plotted on a Lineweaver-Burk plot to determine the Km and Vmax and were used to identify subsequent mixtures of the four esters.

[2] = target: T1, Acetylcholine Esterase from Electrophorus electricus (Electrophorus electricus, UniProt O42275); experiment: Esterase hydrolysis microtiter plate assay with fluorescein pH indicator, acetylcholine esterase; settings: for hydrolysis reaction slope after three months / initial slope range and standard deviation of hydrolysis reaction: with acetylcholine esterase; for initial slope range and standard deviation of hydrolysis reaction: measured initially
T1 construct: purchased Sigma and Fluka
T1 sequence (O42275 24-633): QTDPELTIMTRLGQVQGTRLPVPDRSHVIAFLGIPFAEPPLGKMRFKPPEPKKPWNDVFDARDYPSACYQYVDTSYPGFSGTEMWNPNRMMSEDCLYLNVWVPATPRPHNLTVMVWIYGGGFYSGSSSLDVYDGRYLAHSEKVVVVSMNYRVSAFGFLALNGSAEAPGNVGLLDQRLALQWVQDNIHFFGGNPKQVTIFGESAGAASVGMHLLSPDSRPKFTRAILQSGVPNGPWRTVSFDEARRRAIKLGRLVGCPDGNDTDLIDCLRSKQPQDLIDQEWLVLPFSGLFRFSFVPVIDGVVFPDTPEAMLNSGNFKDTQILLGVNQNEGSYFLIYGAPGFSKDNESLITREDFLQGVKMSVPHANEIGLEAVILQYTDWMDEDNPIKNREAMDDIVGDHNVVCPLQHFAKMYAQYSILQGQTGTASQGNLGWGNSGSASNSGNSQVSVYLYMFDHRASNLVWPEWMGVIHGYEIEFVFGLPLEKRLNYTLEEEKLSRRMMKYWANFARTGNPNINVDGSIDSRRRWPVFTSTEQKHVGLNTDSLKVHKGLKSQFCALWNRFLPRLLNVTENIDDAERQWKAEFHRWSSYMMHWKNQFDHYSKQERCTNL
Method: as §1, §2
as §3, with “The microtiter plate assay provides a rapid and reproducible system to measure the hydrolysis reactions. In” for “In”

[3] = system: Esterase from Bacillus thermoglucosidasius (denoted bacteria-2); experiment: Esterase hydrolysis microtiter plate assay with fluorescein pH indicator, bacteria 2 esterase
Method: as §1
(§4) First, solutions of desired substrates (certain exemplary substrates are depicted in FIGS. 4 and 5) were made from 100 mM of substrate in CH3CN (or buffer, depending on the solubility of the ester). […]
(§5) The microtiter plate assay provides a rapid and reproducible system to measure the hydrolysis reactions. […] The plate was allowed to shake for 10 seconds before the first reading. The reader reads 15 second intervals while shaking before each read. The plate was monitored for 90 seconds by a Molecular Devices, Spectra Max Gemini, fluorescence microtiter plate reader. The reader scans each row and column of the microtiter plate reading each well individually. Therefore, each enzyme was monitored individually and the enzyme's kinetics were measured at the same point in time. […]

nine esterases = experiment: Esterase hydrolysis microtiter plate assay, nine-esterase array
Method: as §1, §4, §5

For `COC(=O)[C@H](C)N` [LM, L-alanine methyl ester], the “hydrolysis by bacteria 1 esterase” value [1] was “hydrolyzed”, the “hydrolysis by acetylcholine esterase” value [2] was “hydrolyzed” and the “hydrolysis by bacteria 2 esterase” value [3] was “hydrolyzes only LM”.
For `COC(=O)[C@@H](C)N` [DM, D-alanine methyl ester], the “hydrolysis by bacteria 1 esterase” value [1] was “hydrolyzed”, the “hydrolysis by acetylcholine esterase” value [2] was “hydrolyzed” and the “hydrolysis by bacteria 2 esterase” value [3] was “not DM”.
In the case of `CCCC(=O)OCC` [BA, Ethyl butyrate], the “hydrolysis reaction slope after three months” value (shortened to “hydrolysis reaction slope”) [2] is reported as −3.2×10^2 fluorescence units/time and the “initial slope range and standard deviation of hydrolysis reaction” value [2] is reported as “(−2.9±1.6)×10^3 fluorescence units/time”.
For `CCCC(=O)OC` [MB, methyl butyrate], the “hydrolysis reaction slope” value [2] was −1.3×10^2 fluorescence units/time and the “initial slope range and standard deviation of hydrolysis reaction” value [2] was “(−1.3±0.01)×10^2 fluorescence units/time”.
With `COC(=O)c1ccc(C)nc1` [methyl 6-methyl nicotinate, Methyl 6-methyl nicotinate] the Km [1] was 2600 µM and the Vmax [1] was 4e-07 M/s.
In the case of `CC(=O)Oc1ccccc1` [PA, Phenyl acetate], the “hydrolysis reaction slope” value [2] is reported as −1.5×10^3 fluorescence units/time, the “initial slope range and standard deviation of hydrolysis reaction” value [2] is reported as “(−1.4±0.2)×10^2 fluorescence units/time” and the “relative rate of hydrolysis among all of the esters” value (nine esterases) is reported as “hydrolyzed the fastest”.
`CCCCC(=O)OCC` [ethyl valerate, Ethyl valerate] gave a Km [1] of 1000 µM and a Vmax [1] of 2e-07 M/s.
